Data reported in patent US4808609A, “Amino-(hydroxy)alkoxy-4-phenylpropyl indoles having antiarrythmic activity” (Roussel Uclaf, priority 1985, dated 1989).

What was measured:
[1] = system: disturbances of the cardiac rhythm (aconitine); test: Anti-arrhythmic activity in the rat (aconitine-induced cardiac rhythm disturbances); format: in vivo
Procedure: Male rats weighing 300-350 g anesthetized intraperitoneally with 1.20 g/kg of urethane were tracheotomized and subjected to artificial respiration (40-50 breaths of 3 ml/minute). Needles were implanted subcutaneously to record the eletrocardiogram of the rats on the derivation signal DII. The products under test were administered intravenously or orally. Five minutes after the administration of the product intravenously or 1 hour after administration orally, the jugular vein of the rats was perfused with 10 μg/min. of an aconitine solution and the time was noted of the appearance of disturbances of the cardiac rhythm (10 μg of aconitine corresponding to the perfusion of a volume of 0.2 ml of solution. The results were expressed as a percentage of the extension of the time of appearance of the cardiac rhythm disturbances as compared to controls and as a function of the dose of the product under test.

[2] = system: Caudal arteries of rats; test: Anti-calcic activity in vitro (inhibition of K+ depolarization contraction of caudal arteries of rats); format: cell-based; conditions: rat caudal artery spirals, 100 mM K+, Ca2+ 0.1 to 3.0 mM, 37° C.; read-out: IC 50 (inhibits by 50% the contraction due to the K+ ions)
Procedure: Caudal arteries of rats were cut into spirals and attached to tension indicators and were kept in tanks of 25 ml of Krebs buffer-sodium bicarbonate (NaCl: 120.8 mM, KCl: 5.9 mM, MgCl2 : 1.2 mM, NaH2 PO4 : 1.2 mM, NaHCO3 : 15.5 mM, glucose: 12.6 mM) at 37° C. gassed with a mixture of O2 : 95%--CO2 --5%. The preparations were depolarized by a buffer solution with a concentration of 100 mM of K^+ ions (NaCl: 26.7 mM, KCl: 100 mM, MgCl2 1.2 mM, NaH2 PO4 : 1.3 mM, NaHCO3 : 15.5 mM, glucose: 12.6 mM).
250 μl of solutions of calcium chloride were added so that an increasing range of concentrations of Ca^2+ ions going from 0.1 to 3.0 mM was obtained. The contractions of the arteries were recorded and in this way a control range was established. The operation was repeated with the range of Ca^2+ ions every 15 minutes, and the preparation was washed four times after each range. When a stable response was obtained, the operation was carried out with the ranges of Ca^2+ ions in the presence of different concentrations of the product under test until a stable response was obtained.
The contractions of the arteries depend on the entry of the Ca^2+ ions into the cells of the smooth muscles and they are caused by the depolarization of the smooth muscle by the K^+ ions by the action of the noradrenaline liberated at the presynaptic level. By repeating the operation with the arteries denervated by the action of 6-OH dopamine, the action due to the noradrenaline alone is suppressed.
The results are expressed in IC 50 (inhibiting concentration 50) which is the concentration of the product under test which inhibits by 50% the contraction due to the K^+ ions.

[3] = system: mice; test: Study of the acute toxicity (oral, mice); format: in vivo
Procedure: The lethal doses LD0 were evaluated for the different compounds tested after oral administration to mice.

[4] = IV, 0.5 mg/kg, aconitine five minutes after administration
[5] = oral, 10 mg/kg, aconitine 1 hour after administration
[6] = IV, 2.5 mg/kg, aconitine five minutes after administration

Row | Compound | % extension of time of appearance of cardiac rhythm disturbances [1, 4] [%] | IC50 [2] [nM] | LD0 (maximum dose which does not cause any mortality in 8 days) [3] [mg/kg] | also measured
1 | CC(C)(C)NCC(O)COc1ccccc1C(=O)CCc1cccc2[nH]ccc12 (stereo not shown) [Example 1, (E) butenedioate (1,2) of 1-[2-[3-(1,1-dimethylethylamino)-2-hydroxypropoxy]-phenyl]-3-(1H-indol-4-yl)-1-propanone] | 28 | 400 | 100 | % extension of time of appearance of cardiac rhythm disturbances ([1]; oral, 5 mg/kg, aconitine 1 hour after administration): 41%; % extension of time of appearance of cardiac rhythm disturbances [1, 5]: 39%; % extension of time of appearance of cardiac rhythm disturbances ([1]; oral, 25 mg/kg, aconitine 1 hour after administration): 142%
2 | CCCNCC(O)COc1ccccc1C(=O)CCc1cccc2[nH]ccc12 (stereo not shown) [Example 2, (E) butenedioate (1,2) 1-[2-[2-hydroxy-3-propylamino-propoxy]-phenyl]-3-(1H-indol-4-yl)-1-propanone] | – | 3800 | 100 | % extension of time of appearance of cardiac rhythm disturbances ([1]; IV, 1 mg/kg, aconitine five minutes after administration): 32%
3 | CC(C)(C)NCC(O)COc1ccccc1C(=O)CCc1cccc2c1CC(=O)N2 (stereo not shown) [Example 5, 1,3-dihydro-4-[3-[2-[3-(1,1-dimethylethylamino)-2-hydroxypropoxy]-phenyl]-3-oxo-propyl]-2H-indol-2-one] | 66 | – | > 400 | % extension of time of appearance of cardiac rhythm disturbances [1, 5]: 47%
4 | CCCNCC(O)COc1ccccc1C(=O)CCc1cccc2c1CC(=O)N2 (stereo not shown) [Example 6, 1,3-dihydro-4-[3-oxo-3-[2-(2-hydroxy-3-propylamino-propoxy)-phenyl]-propyl]-2H-indol-2-one] | – | 3600 | 100 | % extension of time of appearance of cardiac rhythm disturbances ([1]; IV, 0.25 mg/kg, aconitine five minutes after administration): 31%
5 | CC(C)(C)NCC(O)COc1ccccc1CCCc1cccc2[nH]ccc12 (stereo not shown) [Example 7, 1-(1,1-dimethylethylamino)-3-[2-[3-(1H-indol-4-yl)-propyl]-phenoxy]-2-propanol] | – | 640 | > 400 | % extension of time of appearance of cardiac rhythm disturbances [1, 6]: 41%
6 | CCCNCC(O)COc1ccccc1CCCc1cccc2[nH]ccc12 (stereo not shown) [Example 8, 1-[2-[3-(1H-indol-4-yl)-propyl]-phenoxy]-3-propylamino-2-propanol] | – | 1400 | > 400 | % extension of time of appearance of cardiac rhythm disturbances [1, 6]: 25.5%
7 | CCCNCC(O)COc1ccccc1CCCc1cccc2c1CC(=O)N2 (stereo not shown) [Example 9, 1,3-dihydro-4-[3-[2-[2-hydroxy-3-propylamino-propoxy]-phenyl]-propyl]-2H-indol-2-one] | 45 | – | – | –
